Experimental data from patent US6881427B2, “Topical anti-inflammatory composition containing linseed and licorice extracts” (Alticor Inc., priority 2002, dated 2005).

Key:
Format in all cases: cell-based, human
IL-1α = IL-1α secretion from TESTSKIN II tissue (ELISA); conditions: test materials neat, dexamethasone 100 μM
Experimental: (§1) The skin tissue used in this study, TESTSKIN II (Organogenesis Inc., Canton, Mass.), is constructed from human skin with anatomical structures and physiological functions that simulate actual living skin. This tissue has an upper epidermal layer with well-differentiated keratinocytes and stratum corneum and a lower dermal layer with living fibroblasts able to produce collagen matrix.
(§2) The test materials were evaluated for exposure periods of 4, 8, and 24 hours, and their toxicity was evaluated for an exposure period of 24 hours. Test materials 2, 4, 6, and 8 were used neat. […] All dilutions were made in growth media, and assays were performed in triplicate.
All supplies and handling equipment are sterilized, and techniques for maintaining sterility are used. Skin tissue is punched out using an 8 mm biopsy punch from the middle section and transferred to a well of a six-well plate containing transwell inserts and 1 mL of growth media. Tissues are transferred to a humidified 37° C. incubator supplied with 10% CO2 and incubated overnight.
Test materials to be used are dosed on a sterile dosing pad (10 μL/pad) and placed on top of tissue. Dosed tissues are returned to the incubator and incubated for a specified amount of time (e.g., 4 hours), after which the supernatants are replaced with fresh media. Collected supernatants are used for PGE2 and GM-CSF assays.
Assays are performed in triplicate, and the numbers shown correspond to averages of the triplicate treatments.
Tissues are pre-incubated with test materials for 4 hours prior to being stimulated by PMA or Histamine. Secreted IL-1α, PGE2 and GM-CSF are measured using the ELISA method.

TESTSKIN II = experiment: MTT reduction toxicity assay on TESTSKIN II skin tissue; conditions: MTT % survival, 24-hour exposure; PMA 10 ng/mL
Experimental: The release of PGE2 and GM-CSF from skin tissue provides a measure of protective potential following pre-incubation with test materials, whereas the reduction of MTT (3-[4,5-dimethylthiazol-2yl]-2,5-diphenyl-2H-tetrazolium bromide) provides an estimate of toxicity potential.
as §1, §2
All supplies and handling equipment are sterilized, and techniques for maintaining sterility are used. […]
Tissues free of test materials are incubated with 2 mg/mL of MTT solution (made up in growth media) in a humidified 37° C. incubator supplied with 10% CO2 for 2 hours. […] Spent MTT solution is read in a 96 well flat bottom plate at A540. […]

PGE2 = PGE2 secretion from TESTSKIN II tissue (competitive ELISA); conditions: after 24 hours of exposure
Experimental: The anti-inflammatory potential of a composition according to the present invention that includes a combination of linseed extract and licorice extract was evaluated as described herein. The release of PGE2 and GM-CSF from skin tissue provides a measure of protective potential following pre-incubation with test materials, whereas the reduction of MTT (3-[4,5-dimethylthiazol-2yl]-2,5-diphenyl-2H-tetrazolium bromide) provides an estimate of toxicity potential.
The skin tissue used in this study, TESTSKIN II (Organogenesis Inc., Canton, Mass.), is constructed from human skin with anatomical structures and physiological functions that simulate actual living skin. […]
The test materials were evaluated for exposure periods of 4, 8, and 24 hours, and their toxicity was evaluated for an exposure period of 24 hours. […]
Four controls are included: total activity, non-specific binding, maximum binding, and substrate blank. […] Following incubation, 50 μL of stop solution (trisodium phosphate solution) is added and the optical density is measured immediately at 405 nm (reference wavelength of 570-590 nm) using a microplate spectrophotometer. The amount of PGE2 present in the supernatant is determined by comparison to the calibration curve generated by the recombinant PGE2 standard. […]

Structure (SMILES)	IL-1α secretion (IL-1α; 0 Hr, average of triplicate ± SD)	IL-1α secretion (IL-1α; 8 Hr)	IL-1α secretion (IL-1α; 24 Hr)	toxicity to TESTSKIN II tissue, in words (TESTSKIN II)	induction of PGE2 secretion by stimulus, in words (PGE2)
C[C@@H]1C[C@H]2[C@@H]3CCC4=CC(=O)C=C[C@]4(C)[C@@]3(F)[C@@H](O)C[C@]2(C)[C@@]1(O)C(=O)CO [Dexamethasone, dexamethasone]	22.00 ± 9.69	24.45 ± 9.47	25.42 ± 8.94	–	–
CCCCCCCCCCCCCC(=O)O[C@@H]1[C@@H](C)[C@@]2(O)[C@@H](C=C(CO)C[C@]3(O)C(=O)C(C)=C[C@@H]23)[C@@H]2C(C)(C)[C@]12OC(C)=O [PMA, phorbol myristate acetate]	–	–	–	mildly toxic	fails to induce PGE2 secretion above the background level
